Patent US8143288B2, “Inhibitors of HCV replication” (priority 2005, dated 2012)
Where two headings read alike, the source gives them in different places.

Columns and labels:
[1] = tested on: HCV 1b-377-neo replicon cells; assay: HCV replicon FRET assay; format: cell-based; conditions: Hepatitis C virus
[2] = Alamar blue cytotoxicity (CC50) in replicon cells; format: cell-based; conditions: human, wild-type HCV 1b-377-neo replicon cells
Method: (§1) At subsequent various times (typically 72 hours), 10% final volume Alamar blue (Cat#00-100, Trek Diagnostics, Cleveland, Ohio) was added to each well. The plates were returned to the incubator for 5 hours and then read in the Cytoflour (PE Biosystems) to determine Alamar blue conversion in each well as a measure of cellular toxicity. After reading the Alamar blue fluorescence following the manufacturers directions, plates were rinsed 2× with PBS and then used for FRET assay by the addition of 30 μl of the FRET peptide assay reagent (described above) per well. The plate was then placed into the Cytoflour 4000 instrument which had been set to 340 excite/490 emission, automatic mode for 20 cycles and the plate read in a kinetic mode. Typically, the signal to noise using an endpoint analysis after the reads was at least three-fold.
Compound analysis depended upon the quantification of the relative HCV replicon inhibition and the relative cytotoxicity values. To calculate cytotoxicity values, the average alamar blue fluorescence signals from the control wells in row 11 were set as 100% non-toxic. The individual signals in each of the compound test wells were then divided by the average control signal and multiplied by 100% to determine […]. […]

[3] = tested on: Y2065H HCV 1b-377-neo replicon cells; assay: FRET assay on Y2065H (Y > H) replicon cells; format: cell-based; conditions: for EC50: Hepatitis C virus
[4] = Alamar blue cytotoxicity (CC50) in Y > H replicon cells; format: cell-based; conditions: human
Method: as §1
The assay was further adapted to accommodate titrations of compounds to determine EC50 and CC50 values.
(§2) To determine if the Y2065H change was necessary and sufficient to confer resistance to Compound A, the single mutation was generated in the HCV 1b-377-neo replicon. […] To further verify this, colonies formed in the absence of Compound A were isolated and expanded for both the wild-type and Y2065H clones. Sensitivity of these cells to Compound A was then examined using the FRET assay.

[5] = tested on: wild-type HCV 1b-377-neo replicon; assay: Colony formation, wild-type replicon RNA in Huh-7 cells; format: cell-based; conditions: 2 μM Compound A
From the text: as §2

[6] = tested on: Y2065H HCV 1b-377-neo replicon; assay: Colony formation, Y2065H replicon RNA in Huh-7 cells; format: cell-based; conditions: Y > H RNA transfected, 2 μM Compound A, 3 weeks G418 selection
From the text: as §2

[7] = tested on: Compound A-r replicon cells; assay: FRET assay on selected Compound A-r replicon cells; format: cell-based, HCV; conditions: judged by the FRET assay; cells selected with Compound A 5-6 weeks
Method: HCV 1b-377-neo replicon cells were plated in 100-mm plates with ˜25% confluence after 24 hour seeding. Compound A (prepared by the procedure described in WO04/014852, published Feb. 19, 2004) was added at the final concentrations of 5, 10 and 20 μM in the presence of G418. Wild type replicon cells 15 in the absence of the compound were used as a control. After 5-6 weeks, both wt replicon cells and selected cells were tested for their sensitivity to Compound A. In addition, cell lines derived from individual colonies from different concentrations of selective Compound A were also isolated, expanded and tested. In the initial test, approximately 60-fold resistance, judged by the FRET assay, was observed between wt replicon cells and selected replicon cells (designated as Compound A-r replicon cells).

HCV replicon = assay: Combination studies in HCV replicon system (FRET, method of Chou); format: cell-based; conditions: for combination response: in combination with Example 3, replicon cells, 72 hours
Method: Since clinical drug resistance often develops in viral infections following single-agent therapies, there is a need to assess the additive, antagonistic, or synergistic properties of combination therapies. […] Drugs were tested at eleven concentrations each, diluted in DMSO by 3-fold dilutions. The highest concentration used for the four HCV inhibitors was 0.1 μM for Example 3 and 20 μM for the three other HCV antivirals. […] The drugs were tested as monotherapies and in combination with Example 3 at various concentration ratios. Cells were exposed to compounds for 72 hours and the amount of HCV inhibition was then determined using the FRET assay. The potential cytotoxicities of these combined agents were also analyzed in parallel by Alamar blue staining. The degree of antagonism or synergy was determined over a range of drug concentrations, and the combination response curves were fit to assess the antiviral effects of the drug treatment combinations. The concentration ratios were analyzed using the method of Chou. Table 5 reports the combination indices (CI) and the asymptotic confidence intervals at the different concentration ratios. All combination indices were tested for departure from additivity using isobologram methods.

HCV = HCV therapy, Poynard et al. 1998; cited from earlier work
[8] = Wild-type replicon cells, FRET assay, read-out: EC50
[9] = HCV replicon, read-out: Activity (EC50)
[10] = monotherapy, 72 hours, FRET assay, read-out: EC50 in monotherapy
[11] = combined with Example 3, molar ratio 1:1
[12] = combined with Example 3, molar ratio 1:2.5
[13] = combined with Example 3, molar ratio 2.5:1

## C[C@H](NC(=O)OCc1ccccc1)C(=O)Nc1ccc(C2S/C(=N\c3cccc(F)c3)N(Cc3ccco3)C2=O)cc1 (stereo partly drawn) [Compound A, reference compound]
[1]; [8]
  EC50: 1500 nM
[2]
  CC50 at 72 h: > 5000 nM
[3]
  EC50: > 5000 nM
[4]
  CC50 at 72 h: > 5000 nM
[5]; Wild-type RNA transfected, 3 weeks G418 selection
  Number of colonies: 3
[5]; wild-type replicon RNA
  reduction in colony number: 95%
[6]
  Number of colonies: 10
[7]
  resistance between wt replicon cells and selected replicon cells: approximately 60 fold

## O=C(Nc1ccc(/C=C/c2ccc(NC(=O)[C@@H]3CCCN3C(=O)Cc3ccccc3)cc2)cc1)[C@@H]1CCCN1C(=O)Cc1ccccc1 [Example 3]
[1]; [9]
  EC50: 0.1 to 90 nM
[1]; [8]
  EC50: < 50 nM
[1]; [10]
  EC50: < 50 nM
[2]
  CC50 at 72 h: > 5000 nM
[3]
  EC50: > 5000 nM
[3]; Y2065H vs wild-type cells
  window of resistance in Y2065H cells as compared to wild-type cells: > 100 fold
[4]
  CC50 at 72 h: > 5000 nM
HCV replicon
  combination response: no significant drug antagonism

## CN(C)[C@@H](C(=O)N1CCC[C@H]1C(=O)Nc1ccc(/C=C/c2ccc(NC(=O)[C@@H]3CCCN3C(=O)[C@@H](c3ccccc3)N(C)C)cc2)cc1)c1ccccc1 [Example 296]
[1]; [9]
  EC50: 0.1 to 90 nM

## CN(C)c1cc(C(=O)N2CCC[C@H]2C(=O)Nc2ccc(/C=C/c3ccc(NC(=O)[C@@H]4CCCN4C(=O)c4cc(N(C)C)c5ccccc5n4)cc3)cc2)nc2ccccc12 [Example 297]
[1]; [9]
  EC50: 0.1 to 90 nM

## O=C(Nc1ccc(/C=C/c2ccc(NC(=O)[C@@H]3CCCN3C(=O)[C@H](O)c3ccccc3)cc2)cc1)[C@@H]1CCCN1C(=O)[C@H](O)c1ccccc1 [Example 298]
[1]; [9]
  EC50: 0.1 to 90 nM

## C[C@@](O)(C(=O)N1CCC[C@H]1C(=O)Nc1ccc(/C=C/c2ccc(NC(=O)[C@@H]3CCCN3C(=O)[C@@](C)(O)c3ccccc3)cc2)cc1)c1ccccc1 [Example 299]
[1]; [9]
  EC50: 0.1 to 90 nM

## O=C(Nc1ccc(/C=C/c2ccc(NC(=O)[C@@H]3CCCN3C(=O)c3nccc4ccccc34)cc2)cc1)[C@@H]1CCCN1C(=O)c1nccc2ccccc12 [Example 300]
[1]; [9]
  EC50: 0.1 to 90 nM

## C=CC1CC1(NC(=O)[C@@H]1C[C@@H](Oc2cc(-c3ccccc3)nc3cc(OC)ccc23)CN1C(=O)C(NC(=O)OC(C)(C)C)C(C)(C)C)C(=O)O (stereo partly drawn) [protease inhibitor]
[1]; [10]
  EC50: 330 nM
HCV replicon; [11]
  CI at HCV inhibition of: 75%: 0.96 +/− 0.38
  CI at HCV inhibition of: 90%: 0.91 +/− 0.55
  CI at HCV inhibition of: 95%: 0.88 +/− 0.69
  Overall Result: Additive
HCV replicon; combined with Example 3, molar ratio 1:1 (first number Example 3)
  CI at HCV inhibition of: 50%: 1.05 +/− 0.29
HCV replicon; [12]
  CI at HCV inhibition of: 75%: 0.78 +/− 0.22
  CI at HCV inhibition of: 90%: 0.76 +/− 0.33
  CI at HCV inhibition of: 95%: 0.75 +/− 0.43
  Overall Result: Synergistic/Additive
HCV replicon; combined with Example 3, molar ratio 1:2.5 (first number Example 3)
  CI at HCV inhibition of: 50%: 0.82 +/− 0.17
HCV replicon; [13]
  CI at HCV inhibition of: 75%: 0.88 +/− 0.27
  CI at HCV inhibition of: 90%: 0.81 +/− 0.40
  CI at HCV inhibition of: 95%: 0.77 +/− 0.49
  Overall Result: Additive
HCV replicon; combined with Example 3, molar ratio 2.5:1 (first number Example 3)
  CI at HCV inhibition of: 50%: 0.97 +/− 0.22
HCV replicon
  combination response: additive response

## alpha-interferon and ribavirin
HCV
  sustained efficacy: 40 % of patients
